The values below come from patent publication US12662451B2, “Chemical compounds and uses thereof” (GLAXOSMITHKLINE INTELLECTUAL PROPERTY (NO.4) LIMITED, priority 2023, dated 2026).

This experiment has as its target T1, recombinant full-length WRN protein (1-1432) (Homo sapiens, UniProt Q14191).
T1 construct: recombinant full-length WRN protein (1-1432)
The experiment can be described thus: WRN unwinding activity, fluorogenic 384-well assay (Example A). The experiment is classed as biochemical. To be noted: Table 2; for IC50: WRN unwinding activity, 4 hr, read-out: 4 hr UNW pIC50 (converted). As to the method:
Functional WRN unwinding activity can be measured using a fluorogenic plate based 384 well assay configured to measure the separation of labeled double stranded DNA substrate. Compounds were dosed out in neat DMSO with a 1:3 serial dilution scheme. 100 nL of compound was stamped into Greiner low volume black assay plates (Greiner Cat #784076) using the Echo Acoustic Dispenser to generate assay ready plates. All solutions were prepared in assay buffer (25 mM TRIS (pH8.0), 5 mM NaCl, 2 mM MgCl2, 1 mM DTT, 0.05% BSA) for this 10 μL low volume reaction. To prepare the solutions, a 2×WRN Enzyme cocktail was made containing 200 pM of recombinant full-length WRN protein (1-1432). A 2× Substrate cocktail was made to consist of both 200 μM ATP (any ultrapure ATP sample) and 12 nM of the fluorescent quenched labeled double stranded DNA oligomer (IDT Custom synthesis; 5′-5IABkFQ (SEQ ID NO. 1)/GCACTGGCCGTCGTTTTACGGTCGTGACT-3′ (SEQ ID NO. 2): 5′-TTTTTTACTTAACGACGGCCAGTGC (SEQ ID NO. 3)/36-TAMTSP/-3′ (SEQ ID NO. 4)). To start the reaction, 5 μL of assay buffer was added to a single column to serve as the low control. Following this, 5 μL of 2×WRN Enzyme was added in all wells except the buffer low control wells. The reaction plate was covered and incubated at ambient temperature for 4 hours to allow for time dependent inhibition if it existed. After 4 hours, the addition of 5 μL of 2×-ATP/DNA substrate cocktail was added across all wells of the assay plate. This initiated the reaction, as the plate was incubated at ambient temperature for 60 minutes for the unwinding reaction to occur. A 10 mM EDTA solution was prepared and added at 5 μL across the entire plate after 60 minutes to quench the samples for an endpoint measurement. Fluorescent intensity was measured using excitation and emission wavelengths of 525 nm and 598 nm, respectively. High florescent intensity (DMSO with buffer) represents full inhibition of unwinding activity and low florescent intensity (DMSO with enzyme) represents no inhibition of unwinding activity. The potency of the compounds was determined using a four-parameter inhibition model to generate pIC50, Hill Slope, maximum inhibition (see Table 2).

SMILES strings stand for the structures. pIC50: −log10 of the molar value. Counter-ions that a name gives are not always drawn. Like-named read-outs stand apart in the source and are kept apart here.

T1 sequence (Q14191 whole entry): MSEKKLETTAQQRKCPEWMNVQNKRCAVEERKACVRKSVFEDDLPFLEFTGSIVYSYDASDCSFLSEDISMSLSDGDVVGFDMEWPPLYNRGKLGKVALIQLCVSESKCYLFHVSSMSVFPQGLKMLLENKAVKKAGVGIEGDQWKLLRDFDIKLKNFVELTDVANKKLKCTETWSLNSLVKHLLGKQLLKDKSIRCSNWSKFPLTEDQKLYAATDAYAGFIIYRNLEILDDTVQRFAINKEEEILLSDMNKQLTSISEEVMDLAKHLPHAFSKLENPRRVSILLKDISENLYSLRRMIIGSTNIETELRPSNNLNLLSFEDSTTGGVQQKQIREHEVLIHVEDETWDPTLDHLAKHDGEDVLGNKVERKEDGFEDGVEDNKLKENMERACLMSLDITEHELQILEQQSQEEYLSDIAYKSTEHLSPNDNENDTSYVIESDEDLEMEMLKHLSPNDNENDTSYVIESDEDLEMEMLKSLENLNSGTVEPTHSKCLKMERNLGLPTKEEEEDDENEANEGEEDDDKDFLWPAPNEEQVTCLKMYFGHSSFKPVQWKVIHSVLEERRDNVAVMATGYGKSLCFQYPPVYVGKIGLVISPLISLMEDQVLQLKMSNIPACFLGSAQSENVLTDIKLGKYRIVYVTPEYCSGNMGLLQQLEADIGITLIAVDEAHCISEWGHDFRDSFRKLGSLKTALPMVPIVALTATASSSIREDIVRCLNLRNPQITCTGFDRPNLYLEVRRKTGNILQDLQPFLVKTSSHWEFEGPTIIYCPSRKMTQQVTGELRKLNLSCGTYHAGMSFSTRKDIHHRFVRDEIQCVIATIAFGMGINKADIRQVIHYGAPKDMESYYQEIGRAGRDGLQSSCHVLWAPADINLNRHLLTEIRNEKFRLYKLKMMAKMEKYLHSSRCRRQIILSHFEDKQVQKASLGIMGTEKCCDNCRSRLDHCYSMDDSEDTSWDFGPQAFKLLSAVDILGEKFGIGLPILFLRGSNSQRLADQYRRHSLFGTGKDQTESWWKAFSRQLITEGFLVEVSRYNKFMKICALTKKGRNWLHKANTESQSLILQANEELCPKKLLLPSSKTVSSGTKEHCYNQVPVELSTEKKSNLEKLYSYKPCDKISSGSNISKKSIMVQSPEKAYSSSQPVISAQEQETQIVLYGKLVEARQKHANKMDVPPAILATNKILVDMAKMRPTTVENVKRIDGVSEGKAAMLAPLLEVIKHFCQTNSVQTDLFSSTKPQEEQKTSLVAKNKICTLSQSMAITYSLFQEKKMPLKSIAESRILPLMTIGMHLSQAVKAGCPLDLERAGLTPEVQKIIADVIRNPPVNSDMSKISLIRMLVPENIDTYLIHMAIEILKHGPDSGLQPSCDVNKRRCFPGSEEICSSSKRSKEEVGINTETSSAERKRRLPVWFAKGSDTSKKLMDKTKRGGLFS

For the compound `CC#Cc1cc([C@H]2CCC[C@@H](C(=O)Nc3ccc(C(F)(F)F)cc3F)[C@@H]2C(=O)O)ccc1C(F)(F)F` (racemic) [Example 240, rac-(1R,2R,6S)-2-((2-fluoro-4-(trifluoromethyl)phenyl)carbamoyl)-6-(3-(prop-1-yn-1-yl)-4-(trifluoromethyl)phenyl)cyclohexane-1-carboxylic acid], the IC50 is 3980 nM.

As for `O=C(Nc1ccc(C(F)(F)F)cc1)[C@@H]1CCC[C@H](c2ccc(Br)cc2)[C@@]1(F)C(=O)O` (racemic) [Example 243, rac-(1R,2S,6R)-2-(4-bromophenyl)-1-fluoro-6-((4-(trifluoromethyl)phenyl)carbamoyl)cyclohexane-1-carboxylic acid], the IC50 is 5010 nM.

As to `O=C(O)[C@@H]1[C@@H](c2ccc(C(F)(F)F)cc2CO)CCC[C@H]1C(=O)Nc1ccc(C(F)(F)F)cc1F` (racemic) [Example 246, rac-(1R,2R,6S)-2-((2-fluoro-4-(trifluoromethyl)phenyl)carbamoyl)-6-(2-(hydroxymethyl)-4-(trifluoromethyl)phenyl)cyclohexane-1-carboxylic acid], the IC50 was 126 nM.

Take `O=C(O)[C@@H]1[C@@H](c2ccc(C(F)(F)F)cc2)CCC[C@H]1C(=O)Nc1ccc(C(F)(F)F)cc1F` (racemic) [Example 247, rac-(1R,2R,6S)-2-((2-fluoro-4-(trifluoromethyl)phenyl)carbamoyl)-6-(4-(trifluoromethyl)phenyl)cyclohexane-1-carboxylic acid]: the IC50 was 79.4 nM.

For `CCN[C@@H]1CC[C@@H](C(=O)Nc2ccc(C(C)C)cc2)[C@H](C(=O)O)[C@H]1c1ccc(N(C)S(=O)(=O)c2ccc3c(c2)nc(C)n3C)cc1` (racemic) [Example 249, rac-(1R,2S,3R,6R)-3-(ethylamino)-6-((4-isopropylphenyl)carbamoyl)-2-(4-((N,1,2-trimethyl-1H-benzo[d]imidazole)-5-sulfonamido)phenyl)cyclohexane-1-carboxylic acid], the IC50 was 1.58 nM.

Take `Cc1nc2cc(S(=O)(=O)N(C)c3ccc([C@@H]4CCC[C@H](C(=O)Nc5ccc(C(F)(F)F)cc5F)[C@H]4C(=O)O)cc3C#N)ccc2n1C` (relative stereo) [Example 163, rel-(1R,2S,6R)-2-(3-cyano-4-((N,1,2-trimethyl-1H-benzo[d]imidazole)-5-sulfonamido)phenyl)-6-((2-fluoro-4-(trifluoromethyl)phenyl)carbamoyl)cyclohexane-1-carboxyl c acid]: the IC50 was 20 nM.

As to `CN(c1ccc([C@H]2CCC[C@@H](COc3ccc(C(F)(F)F)cc3)[C@@H]2C(=O)O)cc1)S(=O)(=O)c1cccc([C@H]2CCCNC2)c1` (relative stereo) [Example 213, (1R,2S,6R)-2-(4-((N-methyl-3-((R*)-piperidin-3-yl)phenyl)sulfonamido)phenyl)-6-((4-(trifluoromethyl)phenoxy)methyl)cyclohexane-1-carboxylic acid, formic acid salt], the negative-log IC50 (pIC50) – broadly, −log10 of the IC50, conventionally taken in molar units – (4 hr UNW pIC50, WRN unwinding activity) was 7.40.

For `Cc1nc2cc(S(=O)(=O)N(C)c3ccc([C@H]4C[C@H](N(C)C)C[C@@H](C(=O)Nc5ccc(C(F)(F)F)cc5F)[C@@H]4C(=O)O)cc3)ccc2n1C` (relative stereo) [Example 253, rel-(1R,2R,4S,6S)-4-(dimethylamino)-2-((2-fluoro-4-(trifluoromethyl)phenyl)carbamoyl)-6-(4-((N,1,2-trimethyl-1H-benzo[d]imidazole)-5-sulfonamido)phenyl)cyclohexane-1-carboxylic acid], the IC50 was 2 nM.

Take `Cc1nc2cc(S(=O)(=O)Nc3ccc([C@H]4CCC[C@@H](C(=O)Nc5ccc(C(F)(F)F)cc5F)[C@@H]4C(=O)O)cc3)ccc2[nH]1` (relative stereo) [Example 258, rel-(1R,2R,6S)-2-((2-fluoro-4-(trifluoromethyl)phenyl)carbamoyl)-6-(4-((2-methyl-1H-benzo[d]imidazole)-5-sulfonamido)phenyl)cyclohexane-1-carboxylic acid]: the IC50 was 631 nM.

Regarding `Cc1nc2cc(S(=O)(=O)N(C)c3ccc([C@H]4CNC[C@@H](C(=O)Nc5ccc(C(F)(F)F)cc5F)[C@@H]4C(=O)O)cc3)ccc2n1C` (relative stereo) [Example 308, rel-(3R,4S,5R)-3-((2-fluoro-4-(trifluoromethyl)phenyl)carbamoyl)-5-(4-((N,1,2-trimethyl-1H-benzo[d]imidazole)-5-sulfonamido)phenyl)piperidine-4-carboxylic acid], the IC50 is 1.58 nM.

Regarding `Cc1nc2cc(S(=O)(=O)N(C)c3ccc([C@@H]4C[C@@H](N5CCOCC5)C[C@H](C(=O)Nc5ccc(C(F)(F)F)cc5F)[C@H]4C(=O)O)cc3)ccc2n1C` (relative stereo) [Example 339, rel-(1R,2R,4S,6S)-2-((2-fluoro-4-(trifluoromethyl)phenyl)carbamoyl)-4-morpholino-6-(4-((N,1,2-trimethyl-1H-benzo[d]imidazole)-5-sulfonamido)phenyl)cyclohexane-1-carboxylic acid], the IC50 was 631 nM.

With `Cc1nc2cc(S(=O)(=O)N(C)c3ccc([C@@H]4C[C@@H](N5CCC(F)(F)CC5)C[C@H](C(=O)Nc5ccc(C(F)(F)F)cc5F)[C@H]4C(=O)O)cc3)ccc2n1C` (relative stereo) [Example 341, rel-(1R,2R,4S,6S)-4-(4,4-difluoropiperidin-1-yl)-2-((2-fluoro-4-(trifluoromethyl)phenyl)carbamoyl)-6-(4-((N,1,2-trimethyl-1H-benzo[d]imidazole)-5-sulfonamido)phenyl)cyclohexane-1-carboxylic acid], the IC50 is 7940 nM.

With `Cc1nc2cc(S(=O)(=O)N(C)c3ccc([C@@H]4C[C@@H](N5CC6(F)CC5C6)C[C@H](C(=O)Nc5ccc(C(F)(F)F)cc5F)[C@H]4C(=O)O)cc3)ccc2n1C` (relative stereo) [Example 399, rel-(1R,2R,4S,6S)-2-((2-fluoro-4-(trifluoromethyl)phenyl)carbamoyl)-4-(4-fluoro-2-azabicyclo[2.1.1]hexan-2-yl)-6-(4-((N,1,2-trimethyl-1H-benzo[d]imidazole)-5-sulfonamido)phenyl)cyclohexane-1-carboxylic acid], the IC50 is 12600 nM.

As for `Cc1nc2cc(S(=O)(=O)N(C)c3ccc([C@H]4CCC[C@H](C(=O)Nc5ccc(C(C)C)cc5)[C@@H]4C(=O)O)cc3)ccc2n1C` (single isomer, unassigned) [Example 74], the IC50 was 251 nM.

`Cc1nc2cc(S(=O)(=O)N(C)c3ccc([C@H]4CCC[C@@H](C(=O)Nc5ccc(C(C)C)cc5)[C@H]4C(=O)O)cc3)ccc2n1C` (single isomer, unassigned) [Example 76]: the IC50 is 1260 nM.

With `Cc1nc2cc(S(=O)(=O)N(C)c3ccc([C@H]4CCC[C@@H](C(=O)Nc5ccc(C(C)C)cc5)[C@@H]4C(=O)O)cc3)ccc2n1C` (single isomer, unassigned) [Example 79], the IC50 was 501 nM.

As to `CN(c1ccc([C@H]2CCC[C@@H](C(=O)Nc3ccc(C(F)(F)F)cc3F)[C@@H]2C(=O)O)cc1)S(=O)(=O)c1ccc2[nH]cnc2c1` (single isomer, unassigned) [Example 85], the IC50 was 251 nM.

With `CN(c1ccc([C@H]2CCC[C@@H](C(=O)Nc3ccc(C(F)(F)F)cc3F)[C@@H]2C(=O)O)cc1)S(=O)(=O)c1ccc2c(c1)ncn2C` (single isomer, unassigned) [Example 87], the IC50 was 316 nM.

With `CC(=O)N1CCc2cc(S(=O)(=O)N(C)c3ccc([C@H]4CCC[C@@H](C(=O)Nc5ccc(C(F)(F)F)cc5F)[C@@H]4C(=O)O)cc3)ccc21` (single isomer, unassigned) [Example 89], the IC50 is 200 nM.

Consider `Cc1nc2cc(S(=O)(=O)N(C)c3ccc([C@H]4CCC[C@@H](C(=O)Nc5ccc(C(F)(F)F)cc5F)[C@@H]4C(=O)O)cc3)ccc2[nH]1` (single isomer, unassigned) [Example 91], for which the IC50 was 126 nM.

Regarding `CCO[C@@H]1C[C@H](C(=O)Nc2ccc(C(F)(F)F)cc2F)[C@@H](C(=O)O)[C@H](c2ccc(N(C)S(=O)(=O)c3ccc4c(c3)nc(C)n4C)cc2)C1` (single isomer, unassigned) [Example 137], the IC50 was 251 nM.

In the case of `Cc1nc2cc(S(=O)(=O)N(C)c3ccc([C@H]4C[C@@H](O)C[C@@H](C(=O)Nc5ccc(C(F)(F)F)cc5F)[C@H]4C(=O)O)cc3)ccc2n1C` (single isomer, unassigned) [Example 142], the IC50 was 2000 nM.

In the case of `Cc1nc2cc(S(=O)(=O)N(C)c3ccc([C@H]4C[C@@H](O)C[C@@H](C(=O)Nc5ccc(C(F)(F)F)cc5F)[C@H]4C(=O)O)cc3)ccc2n1C` (single isomer, unassigned) [Example 143], the IC50 is 15.8 nM.
